# Test results: ChEMBL document CHEMBL1681676, “The design and synthesis of novel N-hydroxyformamide inhibitors of ADAM-TS4 for the treatment of osteoarthritis” (Bioorg Med Chem Lett, 2011)
# Test system: Rattus norvegicus
# Assay: Volume of distribution at steady state in Han Wistar rat at 2 mg/kg, iv and po by LC-MS/MS analysis
# Type: ADME, organism-based
# Set-up: dose 2 mg/kg, route oral
# Conditions: in vivo
row,Vdss [L/kg],Compound
1,7.4,Cc1noc(C)c1CCC1CCN(S(=O)(=O)C[C@](C)(C[C@H](C)c2ncc(F)cn2)N(O)C=O)CC1

# Test system: Canis familiaris
# Assay: Volume of distribution at steady state in Beagle dog at 1 mg/kg, iv and po by LC-MS/MS analysis
# Type: ADME, organism-based, Canis lupus familiaris
# Set-up: dose 1 mg/kg, route oral
# Conditions: in vivo
row,Vdss [L/kg],Compound
1,9.21,Cc1noc(C)c1CCC1CCN(S(=O)(=O)C[C@](C)(C[C@H](C)c2ncc(F)cn2)N(O)C=O)CC1

# Test system: not listed separately
# Assay: Clearance in Han Wistar rat at 2 mg/kg, iv by LC-MS/MS analysis
# Type: ADME, organism-based
# Set-up: dose 2 mg/kg, route intravenous
# Conditions: in vivo
row,clearance [mL/min/kg],Compound
1,11,Cc1noc(C)c1CCC1CCN(S(=O)(=O)C[C@](C)(C[C@H](C)c2ncc(F)cn2)N(O)C=O)CC1

# Biological target: Matrix metalloproteinase-14 (Homo sapiens, UniProt P50281)
# Assay: Inhibition of recombinant human MMP14 assessed as substrate cleavage by measuring increase in fluorescence after 16 hrs
# Conditions: not given
row,IC50 [nM],Compound
1,> 8900,Cc1noc(C)c1CCC1CCN(S(=O)(=O)C[C@](C)(C[C@H](C)c2ncc(F)cn2)N(O)C=O)CC1
2,11,C[C@@H](C[C@@H](CS(=O)(=O)N1CCN(c2ccc(F)cc2)CC1)N(O)C=O)c1ncc(F)cn1

row,Compound,IC50 [nM]
1,C[C@@H](C[C@@H](CS(=O)(=O)N1CCC(OCc2ccc(Cl)cc2Cl)CC1)N(O)C=O)c1ncc(F)cn1,180

# Biological target: 72 kDa type IV collagenase (Homo sapiens, UniProt P08253)
# Assay: Inhibition of recombinant human MMP2 assessed as substrate cleavage by measuring increase in fluorescence after 16 hrs
# Conditions: not given
# 72 kDa type IV collagenase, sequence (P08253 whole entry): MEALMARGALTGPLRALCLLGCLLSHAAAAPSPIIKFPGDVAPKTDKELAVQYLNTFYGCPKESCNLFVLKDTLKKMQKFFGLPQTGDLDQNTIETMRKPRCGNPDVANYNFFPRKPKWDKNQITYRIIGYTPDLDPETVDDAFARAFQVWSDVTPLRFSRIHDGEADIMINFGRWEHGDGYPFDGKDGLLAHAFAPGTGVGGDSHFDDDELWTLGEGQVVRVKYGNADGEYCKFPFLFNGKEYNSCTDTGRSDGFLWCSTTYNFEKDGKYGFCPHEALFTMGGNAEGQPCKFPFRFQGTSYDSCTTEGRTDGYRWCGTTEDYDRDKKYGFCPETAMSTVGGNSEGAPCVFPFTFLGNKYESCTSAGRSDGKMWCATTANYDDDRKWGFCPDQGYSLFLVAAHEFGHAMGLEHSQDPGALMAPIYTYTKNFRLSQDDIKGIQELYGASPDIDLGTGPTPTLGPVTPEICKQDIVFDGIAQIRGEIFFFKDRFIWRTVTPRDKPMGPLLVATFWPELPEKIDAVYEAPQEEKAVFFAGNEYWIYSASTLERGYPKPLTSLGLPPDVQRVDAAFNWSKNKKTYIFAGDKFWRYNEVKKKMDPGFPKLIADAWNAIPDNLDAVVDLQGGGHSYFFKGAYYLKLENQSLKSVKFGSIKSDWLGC
row,IC50 [nM],Compound
1,> 6300,Cc1noc(C)c1CCC1CCN(S(=O)(=O)C[C@](C)(C[C@H](C)c2ncc(F)cn2)N(O)C=O)CC1

# Test system: not listed separately
# Assay: Half life in Beagle dog at 1 mg/kg, iv and po by LC-MS/MS analysis
# Type: ADME, organism-based, Canis lupus familiaris
# Set-up: dose 1 mg/kg, route oral
# Conditions: in vivo
row,half-life [h],Compound
1,11.3,Cc1noc(C)c1CCC1CCN(S(=O)(=O)C[C@](C)(C[C@H](C)c2ncc(F)cn2)N(O)C=O)CC1

# Biological target: Collagenase 3 (Homo sapiens, UniProt P45452)
# Assay: Inhibition of recombinant human MMP13 assessed as substrate cleavage by measuring increase in fluorescence after 16 hrs
# Conditions: not given
row,IC50 [nM],Compound
1,> 8100,Cc1noc(C)c1CCC1CCN(S(=O)(=O)C[C@](C)(C[C@H](C)c2ncc(F)cn2)N(O)C=O)CC1
2,11,C[C@@H](C[C@@H](CS(=O)(=O)N1CCN(c2ccc(F)cc2)CC1)N(O)C=O)c1ncc(F)cn1

row,Compound,IC50 [nM]
1,C[C@@H](C[C@@H](CS(=O)(=O)N1CCC(OCc2ccc(Cl)cc2Cl)CC1)N(O)C=O)c1ncc(F)cn1,180

# Test system: not listed separately
# Assay: Oral bioavailability in mouse by LC-MS/MS analysis
# Type: ADME, organism-based
# Conditions: in vivo
row,bioavailability [%],Compound
1,34,Cc1noc(C)c1CCC1CCN(S(=O)(=O)C[C@](C)(C[C@H](C)c2ncc(F)cn2)N(O)C=O)CC1

# Test system: not listed separately
# Assay: Oral bioavailability in Han Wistar rat at 2 mg/kg by LC-MS/MS analysis
# Type: ADME, organism-based
# Conditions: in vivo
row,bioavailability [%],Compound
1,3.5,Cc1noc(C)c1CCC1CCN(S(=O)(=O)C[C@](C)(C[C@H](C)c2ncc(F)cn2)N(O)C=O)CC1

# Biological target: Cytochrome P450 3A4 (Homo sapiens, UniProt P08684)
# Assay: Inhibition of CYP3A4
# Type: ADME
# Conditions: not given
# Cytochrome P450 3A4, sequence (P08684 whole entry): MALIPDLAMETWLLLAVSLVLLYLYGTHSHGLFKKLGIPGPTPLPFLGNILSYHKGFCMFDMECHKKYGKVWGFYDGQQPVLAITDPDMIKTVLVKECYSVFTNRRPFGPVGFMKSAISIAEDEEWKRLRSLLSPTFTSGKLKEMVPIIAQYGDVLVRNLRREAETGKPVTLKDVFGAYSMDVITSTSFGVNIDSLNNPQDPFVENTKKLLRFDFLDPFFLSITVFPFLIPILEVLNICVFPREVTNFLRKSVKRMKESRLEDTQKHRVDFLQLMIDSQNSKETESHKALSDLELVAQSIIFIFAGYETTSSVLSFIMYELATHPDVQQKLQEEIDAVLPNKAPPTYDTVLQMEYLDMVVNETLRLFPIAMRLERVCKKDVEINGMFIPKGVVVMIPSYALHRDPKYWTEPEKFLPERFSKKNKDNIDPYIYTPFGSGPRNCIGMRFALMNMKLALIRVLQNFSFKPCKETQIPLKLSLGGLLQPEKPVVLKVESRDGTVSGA
row,IC50 [nM],Compound
1,1400,C[C@@H](C[C@@H](CS(=O)(=O)N1CCN(c2ccc(F)cc2)CC1)N(O)C=O)c1ncc(F)cn1

# Biological target: T1, A disintegrin and metalloproteinase with thrombospondin motifs 4 (Homo sapiens, UniProt O75173)
# T1 sequence (O75173 whole entry): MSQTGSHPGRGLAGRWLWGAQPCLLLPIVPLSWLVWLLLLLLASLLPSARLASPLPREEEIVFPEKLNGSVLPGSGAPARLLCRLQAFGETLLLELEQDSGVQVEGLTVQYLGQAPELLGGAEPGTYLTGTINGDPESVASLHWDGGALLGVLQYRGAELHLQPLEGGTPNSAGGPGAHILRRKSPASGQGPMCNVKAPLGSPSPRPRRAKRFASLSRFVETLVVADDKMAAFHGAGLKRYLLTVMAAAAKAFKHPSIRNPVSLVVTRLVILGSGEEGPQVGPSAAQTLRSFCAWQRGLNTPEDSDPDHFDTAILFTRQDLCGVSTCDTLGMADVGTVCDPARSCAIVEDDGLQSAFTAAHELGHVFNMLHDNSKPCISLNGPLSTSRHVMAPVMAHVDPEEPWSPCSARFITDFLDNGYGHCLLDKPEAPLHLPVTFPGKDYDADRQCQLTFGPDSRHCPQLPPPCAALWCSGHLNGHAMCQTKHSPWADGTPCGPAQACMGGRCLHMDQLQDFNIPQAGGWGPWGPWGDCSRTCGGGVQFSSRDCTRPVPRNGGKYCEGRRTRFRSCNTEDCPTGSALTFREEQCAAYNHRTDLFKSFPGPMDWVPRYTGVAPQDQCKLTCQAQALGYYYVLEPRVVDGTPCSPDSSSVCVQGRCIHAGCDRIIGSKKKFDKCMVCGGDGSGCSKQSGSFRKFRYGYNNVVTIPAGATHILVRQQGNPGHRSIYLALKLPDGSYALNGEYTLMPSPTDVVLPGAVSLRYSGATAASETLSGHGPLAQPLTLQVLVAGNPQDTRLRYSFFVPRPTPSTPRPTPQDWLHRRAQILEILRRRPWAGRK
# Assay: Inhibition of ADAMTS-4 assessed as substrate cleavage by measuring increase in fluorescence after 16 hrs
# Conditions: not given
row,Compound,IC50 [nM]
1,C[C@@H](C[C@@H](CS(=O)(=O)N1CCN(c2ccc(F)cc2)CC1)N(O)C=O)c1ncc(F)cn1,1.4
2,C[C@@H](C[C@@H](CS(=O)(=O)N1CCC(OCc2ccc(Cl)cc2Cl)CC1)N(O)C=O)c1ncc(F)cn1,1

# Biological target: Disintegrin and metalloproteinase domain-containing protein 17 (Homo sapiens, UniProt P78536)
# Assay: Inhibition of TACE assessed as substrate cleavage by measuring increase in fluorescence after 16 hrs
# Conditions: not given
# Disintegrin and metalloproteinase domain-containing protein 17, sequence (P78536 whole entry, the tested form may be a part): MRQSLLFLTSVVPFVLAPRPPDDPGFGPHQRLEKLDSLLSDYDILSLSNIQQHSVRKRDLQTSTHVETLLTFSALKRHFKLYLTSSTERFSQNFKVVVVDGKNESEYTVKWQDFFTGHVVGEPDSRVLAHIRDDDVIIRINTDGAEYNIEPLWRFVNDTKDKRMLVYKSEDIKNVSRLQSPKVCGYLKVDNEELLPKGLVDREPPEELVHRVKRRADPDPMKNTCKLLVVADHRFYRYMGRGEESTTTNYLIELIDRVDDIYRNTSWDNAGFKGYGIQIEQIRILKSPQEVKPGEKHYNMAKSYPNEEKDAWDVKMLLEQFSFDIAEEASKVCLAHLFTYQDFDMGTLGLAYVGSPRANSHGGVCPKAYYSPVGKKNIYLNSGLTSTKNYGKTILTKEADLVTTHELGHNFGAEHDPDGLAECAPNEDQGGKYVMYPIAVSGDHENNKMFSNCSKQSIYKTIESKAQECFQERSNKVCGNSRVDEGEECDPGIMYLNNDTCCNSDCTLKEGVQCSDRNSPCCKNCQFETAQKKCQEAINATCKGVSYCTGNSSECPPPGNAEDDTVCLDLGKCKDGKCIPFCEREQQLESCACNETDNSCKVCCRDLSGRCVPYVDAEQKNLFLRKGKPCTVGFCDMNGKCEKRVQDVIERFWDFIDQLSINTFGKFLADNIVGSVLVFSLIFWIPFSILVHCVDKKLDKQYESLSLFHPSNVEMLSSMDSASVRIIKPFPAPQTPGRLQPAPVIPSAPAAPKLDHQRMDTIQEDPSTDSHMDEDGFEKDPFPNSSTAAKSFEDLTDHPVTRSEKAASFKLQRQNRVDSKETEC
row,IC50 [nM],Compound
1,250,Cc1noc(C)c1CCC1CCN(S(=O)(=O)C[C@](C)(C[C@H](C)c2ncc(F)cn2)N(O)C=O)CC1

# Test system: not listed separately
# Assay: Half life in Han Wistar rat at 2 mg/kg, iv and po by LC-MS/MS analysis
# Type: ADME, organism-based
# Set-up: dose 2 mg/kg, route oral
# Conditions: in vivo
row,half-life [h],Compound
1,11,Cc1noc(C)c1CCC1CCN(S(=O)(=O)C[C@](C)(C[C@H](C)c2ncc(F)cn2)N(O)C=O)CC1

# Test system: not listed separately
# Assay: Oral bioavailability in Beagle dog at 1 mg/kg by LC-MS/MS analysis
# Type: ADME, organism-based, Canis lupus familiaris
# Conditions: in vivo
row,bioavailability [%],Compound
1,20,Cc1noc(C)c1CCC1CCN(S(=O)(=O)C[C@](C)(C[C@H](C)c2ncc(F)cn2)N(O)C=O)CC1

# Biological target: not listed separately
# Assay: Inhibition of aggrecanase-mediated aggrecan degradation in IL-1 and oncostatin M-stimulated human knee osteoarthritic cartilage after 48 hrs by immunoblot method
# Conditions: not given
row,IC50 [nM],Compound
1,243,Cc1noc(C)c1CCC1CCN(S(=O)(=O)C[C@](C)(C[C@H](C)c2ncc(F)cn2)N(O)C=O)CC1

# Biological target: not listed separately
# Assay: Inhibition of aggrecanase-mediated aggrecan degradation in IL-1-stimulated bovine nasal cartilage explant after 48 hrs by immunoblot method
# Type: tissue-based, Bos taurus
# Conditions: not given
row,IC50 [nM],Compound
1,310,Cc1noc(C)c1CCC1CCN(S(=O)(=O)C[C@](C)(C[C@H](C)c2ncc(F)cn2)N(O)C=O)CC1

# Test system: not listed separately
# Assay: Clearance in Beagle dog at 1 mg/kg, iv by LC-MS/MS analysis
# Type: ADME, organism-based, Canis lupus familiaris
# Set-up: dose 1 mg/kg, route intravenous
# Conditions: in vivo
row,clearance [mL/min/kg],Compound
1,20,Cc1noc(C)c1CCC1CCN(S(=O)(=O)C[C@](C)(C[C@H](C)c2ncc(F)cn2)N(O)C=O)CC1

# Biological target: T2, Interstitial collagenase (Homo sapiens, UniProt P03956)
# T2 sequence (P03956 whole entry): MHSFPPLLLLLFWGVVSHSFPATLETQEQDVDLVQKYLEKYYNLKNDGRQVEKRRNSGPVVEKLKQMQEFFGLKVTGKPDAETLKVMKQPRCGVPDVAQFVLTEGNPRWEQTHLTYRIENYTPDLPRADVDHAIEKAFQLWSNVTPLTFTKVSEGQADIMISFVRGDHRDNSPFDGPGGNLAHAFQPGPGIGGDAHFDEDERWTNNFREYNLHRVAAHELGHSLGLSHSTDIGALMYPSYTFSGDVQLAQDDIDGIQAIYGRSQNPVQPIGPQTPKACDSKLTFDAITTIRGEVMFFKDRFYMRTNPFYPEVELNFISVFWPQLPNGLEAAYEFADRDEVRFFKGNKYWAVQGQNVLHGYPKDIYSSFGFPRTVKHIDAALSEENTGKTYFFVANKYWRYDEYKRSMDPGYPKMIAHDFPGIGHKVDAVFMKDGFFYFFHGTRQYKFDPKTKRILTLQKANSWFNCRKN
# Assay: Inhibition of recombinant human MMP1 assessed as substrate cleavage by measuring increase in fluorescence after 16 hrs
# Conditions: not given
row,IC50 [nM],Compound
1,> 19000,Cc1noc(C)c1CCC1CCN(S(=O)(=O)C[C@](C)(C[C@H](C)c2ncc(F)cn2)N(O)C=O)CC1
2,> 1100,C[C@@H](C[C@@H](CS(=O)(=O)N1CCN(c2ccc(F)cc2)CC1)N(O)C=O)c1ncc(F)cn1

row,Compound,IC50 [nM]
1,C[C@@H](C[C@@H](CS(=O)(=O)N1CCC(OCc2ccc(Cl)cc2Cl)CC1)N(O)C=O)c1ncc(F)cn1,9700

# Biological target: Voltage-gated inwardly rectifying potassium channel KCNH2 (Homo sapiens, UniProt Q12809)
# Assay: Inhibition of human ERG
# Conditions: not given
# Voltage-gated inwardly rectifying potassium channel KCNH2, sequence (Q12809 whole entry): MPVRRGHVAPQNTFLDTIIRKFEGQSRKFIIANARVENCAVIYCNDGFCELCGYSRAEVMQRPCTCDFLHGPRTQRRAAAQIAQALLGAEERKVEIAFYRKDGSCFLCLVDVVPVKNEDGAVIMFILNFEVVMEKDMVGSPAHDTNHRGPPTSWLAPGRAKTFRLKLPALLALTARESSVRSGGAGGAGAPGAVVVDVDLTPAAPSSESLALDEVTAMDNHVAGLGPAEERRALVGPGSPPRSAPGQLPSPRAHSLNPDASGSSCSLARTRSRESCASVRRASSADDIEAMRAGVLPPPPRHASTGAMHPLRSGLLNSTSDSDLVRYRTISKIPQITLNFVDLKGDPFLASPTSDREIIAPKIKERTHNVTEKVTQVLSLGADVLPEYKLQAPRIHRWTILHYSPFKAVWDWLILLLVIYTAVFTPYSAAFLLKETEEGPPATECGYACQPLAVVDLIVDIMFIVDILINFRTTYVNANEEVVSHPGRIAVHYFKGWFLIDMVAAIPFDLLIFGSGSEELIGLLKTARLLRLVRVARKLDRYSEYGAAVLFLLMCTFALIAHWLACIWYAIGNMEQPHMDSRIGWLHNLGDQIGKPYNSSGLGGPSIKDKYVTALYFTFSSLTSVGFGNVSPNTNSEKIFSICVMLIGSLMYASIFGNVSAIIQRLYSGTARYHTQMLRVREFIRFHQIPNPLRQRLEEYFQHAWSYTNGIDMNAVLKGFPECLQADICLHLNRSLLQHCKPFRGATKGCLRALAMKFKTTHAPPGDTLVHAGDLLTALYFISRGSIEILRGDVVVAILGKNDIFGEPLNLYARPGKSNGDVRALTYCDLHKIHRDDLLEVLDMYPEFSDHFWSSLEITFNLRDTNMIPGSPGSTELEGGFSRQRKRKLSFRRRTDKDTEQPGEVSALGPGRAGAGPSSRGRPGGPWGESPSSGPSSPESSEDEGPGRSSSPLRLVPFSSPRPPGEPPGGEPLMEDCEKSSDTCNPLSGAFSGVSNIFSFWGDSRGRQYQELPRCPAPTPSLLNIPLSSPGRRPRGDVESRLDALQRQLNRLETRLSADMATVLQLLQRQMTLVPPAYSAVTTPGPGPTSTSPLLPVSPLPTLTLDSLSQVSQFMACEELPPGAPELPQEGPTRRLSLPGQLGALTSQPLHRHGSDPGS
row,Compound,IC50 [nM]
1,C[C@@H](C[C@@H](CS(=O)(=O)N1CCN(c2ccc(F)cc2)CC1)N(O)C=O)c1ncc(F)cn1,26000
